The record followed here is US11629141B2, “Proteasome inhibitors and uses thereof” (CORNELL UNIVERSITY, priority 2015, dated 2023).

One assay concerns P. falciparum schizonts. In words: Accumulation of poly-ubiquitinated proteins in P. falciparum schizonts. The assay is classed as cell-based. The note with it: 4 hours post treatment.
For the next assay, the target named is T1, β2i (Homo sapiens, UniProt P40306).
T1 construct: purchased Boston Biochem Inc
In words: Inhibition of β2i activity. The assay is classed as biochemical. To be noted: no inhibition <33 μM. The protocol:
(§1) The foregoing features of these AsnEDA encouraged a further round of SAR studies (Table 5) based on varying the carboxylic acid at the ethylenediamine, the N-cap at the Asn, and the side chain of the Asn, based on PKS21004. All compounds listed in the Table 5 were synthesized as described in Examples 6-77. All final compounds were confirmed by NMR and HRMS. IC50s of all compounds against β5i and β5c (Table 5), β1i, β2i, β1c and β2c were determined following a reported method (Lin et al., “N,C-Capped Dipeptides With Selectivity for Mycobacterial Proteasome Over Human Proteasomes: Role of S3 and S1Binding Pockets,” J Am Chem Soc. 135:9968-9971 (2013), which is hereby incorporated by reference in its entirety). […] The [1,1′-biphenyl]-3-carboxamide of PKS21004 was then modified with the following substituents: 4′-fluoro (PKS21026), 4′-cyano (PKS21028), 4-fluoro (PKS21196), 4,3′-difluoro (PKS21195) and 4,2′-difluoro (PKS21187).

Assay [1] deals with T2, human immunoproteasome β5i (Homo sapiens, UniProt P28062).
T2 construct: purchased Boston Biochem Inc
In words: IC50 against chymotryptic β5i activity of human immunoproteasome (96-well plate, Ac-ANW-AMC). The note with it: β5i; substrate Ac-ANW-AMC; read-out: IC50 Hu i-20S (Ac-ANW-AMC). The assay is classed as biochemical.

The target of another assay is T3, c-20S β5c (Homo sapiens, UniProt P28074).
T3 construct: purchased Boston Biochem Inc
Put plainly: Kinetic analysis, substrate titration of c-20S steady state velocities. Format: biochemical. The protocol:
FIGS. 1A-1E are graphs showing inhibition modality of PKS21004 against human proteasomes. Washout of c-20S from the preincubated c-20S and […] to recover the β5c activity (FIG. 1A). Substrate titration of hu i-20S (FIG. 1B) and c-20S (FIG. 1D) steady state velocities in the presence of PKS21004 at the concentrations indicated next to each curve. Data as in (FIG. 1B) were plotted double reciprocal in (FIG. 1C), and (FIG. 1D) in (FIG. 1E).
A washout experiment was used to confirm the reversibility of this class of proteasome inhibitors, as expected from their non-covalent chemistry.

For a further assay, the target named is T4, β1c (Homo sapiens, UniProt P28072).
T4 construct: purchased Boston Biochem Inc
In words: Inhibition of β1c activity. The assay is classed as biochemical. To be noted: no inhibition <33 μM. On the procedure:
as §1

As to `CC(C)(C)NC(=O)C[C@H](NC(=O)CCc1ccccc1)C(=O)NCCNC(=O)c1cccc(-c2ccccc2)c1` [PKS21004], the “accumulation of poly-ubiquitinated proteins” value in the assay on P. falciparum schizonts is “accumulation of poly-ubiquitinated proteins”. Also, the “IC50 against β2i” value on β2i is recorded as “no inhibition”. Besides, in assay [1], the IC50 turned out to be 58 nM. In addition, the affinity at c-20S β5c corresponds to a Ki of 550 nM. Besides, the “α for c-20S” value at c-20S β5c (fit to equation for noncompetitive inhibitors) is 0.98 and ≈ 0.57. Besides, at c-20S β5c (with respect to substrate), the “modality of inhibition of β5c” value is on record as “noncompetitive inhibitor”. In addition, the “IC50 against β1c” value at β1c was “no inhibition”.
